Data reported in patent publication US5607926A, “Cephalosporin antibiotics” (Microcide Pharmaceuticals, Inc., priority 1995, dated 1997).
Values after ≈ are worked out from the molar mass of the structure shown. Counter-ions that a name gives are not always drawn. Like-named read-outs stand apart in the source and are kept apart here.

What was measured:
S. aureus ATCC 29213 = assay: In vitro antibacterial evaluation, MIC by agar dilution, S. aureus ATCC 29213; type: cell-based; settings: Staphylococcus aureus, ATCC29213
In short: (§1)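 In this standardized agar dilution format, compound was dissolved in PBS pH 7.2, with Tween 20 or DMSO as needed, and mixed into molten Mueller-Hinton agar to final levels of 128 down to ≤0.25 μg/mL. About 10^4 cfu were spotted per isolate, and MIC was recorded after 16-20 h at 35°-36° C.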

[1] = system: S. aureus 76 (Meth^R)(lac^+); assay: In vitro antibacterial evaluation, MIC by agar dilution, S. aureus 76; type: cell-based; settings: Staphylococcus aureus, read-out: MIC
In short: as §1

[2] = system: S. aureus Col8A (Meth^S)(lac^-); assay: In vitro antibacterial evaluation, MIC by agar dilution, S. aureus Col8A; type: cell-based; settings: Staphylococcus aureus
In short: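 Log-phase isolates were spot-inoculated at about 10^4 cfu onto Mueller-Hinton agar carrying duplicate two-fold compound levels, 128 μg/mL to ≤0.25 μg/mL, following NCCLS (1991). Plates were read after 16-20 h at 35°-36° C. The lowest growth-inhibiting concentration gave the MIC (μg/ml).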

S. haemolyticus (Meth^R) = assay: In vitro antibacterial evaluation, MIC by agar dilution, S. haemolyticus; type: cell-based; settings: Staphylococcus haemolyticus, read-out: MIC
In short: as §1

E. faecium ATCC 35667 = assay: In vitro antibacterial evaluation, MIC by agar dilution, E. faecium ATCC 35667; type: cell-based; settings: Enterococcus faecium, ATCC35667, read-out: MIC
In short: as §1

E. faecalis ATCC 29212 = assay: In vitro antibacterial evaluation, MIC by agar dilution, E. faecalis ATCC 29212; type: cell-based; settings: Enterococcus faecalis, ATCC29212; E. faecalis ATCC 29212; read-out: MIC
In short: as §1

E. coli ATCC 25922 = assay: In vitro antibacterial evaluation, MIC by agar dilution, E. coli ATCC 25922; type: cell-based; settings: Escherichia coli, ATCC25922, read-out: MIC
In short: as §1

P. aeruginosa ATCC 27853 = assay: In vitro antibacterial evaluation, MIC by agar dilution, P. aeruginosa ATCC 27853; type: cell-based; settings: Pseudomonas aeruginosa, ATCC27853, read-out: MIC
In short: as §1

[3] = system: methicillinsusceptible S. aureus strain ATCC 13709; assay: In vivo antibacterial evaluation, murine model for lethal bacteremic peritonitis; parameters: species or system S. aureus in female Swiss-Webster mice; settings: Staphylococcus aureus, ATCC13709, sc, 72 h, two equal SC doses at challenge and 2 hours later, mice, probit
Experimental: Groups of 5 female Swiss-Webster mice (Simonsen, Gilroy, Calif.) each are challenged by the intraperitoneal (IP) route with ten-fold increments of a bacterial inoculum. This permits calculation of the mean lethal dose (LD50) and the LD100. For preliminary evaluation of a new antibiotic, mice are challenged IP with an LD100 titer of bacteria. In two equal doses administered at the time of bacterial challenge and 2 hours later, groups of 10 mice each are treated subcutaneously with two-fold increments of the test drug and an antibiotic of known efficacy in mice and humans (i.e., positive control). Mice are observed for 72 h. Those alive at 72 h are considered long term survivors. The total drug dose in mg/kg that protects 50% of mice in a group from death is termed the mean protective dose (PD50). PD50 s are similarly determined for several pathogens. The quantitative endpoints for the new drug are then compared with those obtained with reference antibiotics.
Six ten-fold dilutions of inoculum suspended in 0.5 mL of sterilized 7% hog gastric mucin (Sigma) are injected IP in groups of 5 mice each. A control group of 5 mice receive mucin alone. Mice are observed for 72 h. Those alive at 72 h are considered long term survivors. The mean lethal dose (LD50) and 100% lethal dose (LD100) are determined by the probit test.
For antibiotic efficacy studies, mice are challenged IP with bacterial titers that will afford an LD100 for the test strain. In two equal doses administered at the time of bacterial challenge and 2 hours later, groups of 10 mice each are treated by the subcutaneous route (SC) with twofold increments of the test antibiotic; another group is treated similarly with a reference antibiotic of known efficacy in animals and man. Drug doses can range from 0.01 to 512 mg/kg. If the drug is poorly soluble, Tween 20 or propylene glycol will be employed to solubilize the drug. Animals are observed for 72 h. The 50% protective dose (PD50) is calculated in mg/kg by the probit method. The PD50 is the same as the 50% effective dose (ED50) and the 50% curative dose (CD50). Samples of blood from the hearts of all animals that die and from half the mice that survive are cultured on brain-heart infusion agar. Animals that received a protective dosage of the test drug will be alive at 72 h, although they may appear moderately ill to very ill during the observation period. […] Most of these mice will die within 6 to 48 h. Those alive at 72 h will be considered long term survivors.
(§2) data reported for challenge with methicillinsusceptible S. aureus strain

[4] = system: methicillinsusceptible S. aureus strain ATCC 13709; assay: Challenge strain MIC; type: cell-based; settings: Staphylococcus aureus
Experimental: The compounds of the invention were evaluated against several β-lactamresistant bacteria strains by determining the minimum inhibitory concentration (MIC, μg/ml) of each compound with respect to each strain. The MIC, the lowest concentration of antibiotic which inhibits growth of the test organism, was determined by the agar dilution method.
To determine the MIC for bacterial isolates, the test compound was incorporated in a series of two-fold dilutions into liquified Mueller-Hinton agar. Upon solidification, a number of different bacterial strains were spot inoculated with a replicating device onto the agar surface. […] The procedures used in these studies have been standardized by the National Committee for Clinical Laboratory Standards (NCCLS), as per the NCCLS publication entitled METHODS FOR DILUTION ANTIMICROBIAL SUSCEPTIBILITY TESTS (1991), which is incorporated herein by reference.
Aliquots of antimicrobial agents were prepared in phosphate buffered saline (PBS) at pH 7.2. Tween 20 or DMSO was used as a solubilizing vehicle as needed. Standard methods of vortexing, sonicating and gentle heat were used to facilitate solubilizing the test agent. Typically, the concentration of the stock solution was 10× that of the highest drug concentration tested. A 1.28 mg/mL stock solution was used with a subsequent highest working concentration of 128 μg/mL. Serial two-fold dilutions were done through ≤0.25 μg/mL. Each drug level was tested in duplicate. Two-fold drug dilutions were done in sterile 50 mL tubes with a final drug volume of 5 mL. Upon the addition of 45 mL of molten agar, a 10-fold dilution resulted. Two, 25 mL. plates were then poured into 15×150 mm square Petri plates with grids and allowed to harden.
A control plate with a reference drug, either cefotaxime, vancomycin or imipenem, was used as the positive growth control. Stock concentrations of reference antibiotics were prepared and frozen at -80° C. Upon preparation, the control plates were sealed and stored in the refrigerator for up to 1 week prior to use; however, imipenem control plates had to be prepared just prior to use. All test plates were used within 24 hours of preparation.
Satisfactory results were obtained where the inoculum contained about 10^4 colony forming units (cfu) ±0.5 logs. Starting with pure cultures of the test isolates on agar plates, a few isolated colonies were transferred to a tube of nutrient broth and allowed to grow 4-6 hours at 35°-36° C. to reach log-phase growth. Dropwise addition of the broth culture to PBS was done to match a 0.5 McFarland turbidity standard equal to 10^8 cfu/mL. This was further diluted ten-fold in PBS to reach a working inoculum concentration of 10^7 cfu/mL. When 1 μL of the working inoculum was applied to the agar surface a concentration of about 10^4 cfu per spot was obtained.
Disposable sterile 1 μL loops were used to inoculate test plates, with each isolate in a designated grid on the agar plate. An alternate method of inoculation involved the use of a replica plater, a device with 48 steel pins allowing the simultaneous inoculation of multiple isolates. After the spots had dried, the plates were incubated at 35°-36° C. for 16-20 hours. Endpoints were assessed as the minimum inhibitory concentration (MIC) of antimicrobial agent.
as §2

[5] = S. aureus ATCC 29213, read-out: MIC
[6] = ATCC13709, S. aureus ATCC 13709, read-out: Challenge str MIC
[7] = ATCC13709, read-out: Challenge str MIC

| Compound | MIC (S. aureus ATCC 29213; [5]) [µg/mL] | MIC [1] [µg/mL] | MIC [2] [µg/mL] | MIC (S. haemolyticus (Meth^R)) [µg/mL] | MIC (E. faecium ATCC 35667) [µg/mL] | MIC (E. faecalis ATCC 29212) [µg/mL] | MIC (E. coli ATCC 25922) [µg/mL] | MIC (P. aeruginosa ATCC 27853) [µg/mL] | ED50 ([3]; read-out: ED50) [mg/kg] | MIC [4, 6] [µg/mL] | MIC (S. aureus ATCC 29213) [µg/mL] | MIC [4, 7] [µg/mL] | ED50 [3] [mg/kg] |
| --- | --- | --- | --- | --- | --- | --- | --- | --- | --- | --- | --- | --- | --- |
| N=C(N)SCc1ccc(CC(=O)N[C@@H]2C(=O)N3C(C(=O)O)=C(Sc4ccccc4CSC(=N)N)CS[C@H]23)cc1 [Cmpd 97, (7R)-7-[((4-isothiouroniummethylphenyl)acetyl)amino]-3-(2-isothiouroniummethylphenylthio)-3-cephem-4-carboxylate, trifluoroacetic acid salt] | 0.06 | 4 | 0.125 | 8 | 1 | 0.5 | > 32 | > 32 | 0.74 | 0.062 |  |  |  |
| N=C(N)SCc1ccccc1SC1=C(C(=O)O)N2C(=O)[C@@H](NC(=O)Cc3ccccc3CN)[C@H]2SC1 [Cmpd 101, (7R)-7-[((2-Aminomethylphenyl)acetyl)amino]-3-(2-isothiouroniummethylphenylthio)-3-cephem-4-carboxylate, trifluoroacetic acid salt] |  | 8 | 0.25 | 16 | 2 | 1 | > 32 | > 32 | 0.65 | 0.125 | 0.25 |  |  |
| N#Cc1ncccc1SC1=C(C(=O)O)N2C(=O)[C@@H](NC(=O)Cc3ccccc3)[C@H]2SC1 [Cmpd 102, (7R)-7-[(Phenylacetyl)amino]-3-(2-cyanopyridin-3-ylthio)-3-cephem-4-carboxylic acid] |  | 16 (≈ 35.4 µM) | 0.125 (≈ 0.276 µM) | 32 (≈ 70.7 µM) | 4 (≈ 8.84 µM) | 2 (≈ 4.42 µM) | 32 (≈ 70.7 µM) | > 32 | 1.75 |  | 0.125 (≈ 0.276 µM) | 0.125 (≈ 0.276 µM) |  |
| O=C(Cc1ccccc1)N[C@@H]1C(=O)N2C(C(=O)O)=C(Sc3cccnc3-n3cccn3)CS[C@H]12 [Cmpd 103, (7R)-7-[(Phenylacetyl)amino]-3-(2-(pyrazol-1-yl)pyridin-3-ylthio)-3-cephem-4-carboxylic acid] |  | 8 (≈ 16.2 µM) | 0.25 (≈ 0.507 µM) | 4 (≈ 8.1 µM) | 2 (≈ 4.05 µM) | 1 (≈ 2.03 µM) | > 32 | > 32 | 2.67 | 0.125 (≈ 0.253 µM) | 0.25 (≈ 0.507 µM) |  |  |
| CCC(CC)O/N=C(\C(=O)N[C@@H]1C(=O)N2C(C(=O)O)=C(Sc3ccnn3-c3ccccc3)CS[C@H]12)c1csc(N)n1 [Cmpd 104, (7R)-7-[(Z)-2-(aminothiazol-4-yl)-2-(3-pentyloxyimino)acetamido]-3-(1-N-phenylpyrazol-5-ylthio)-3-cephem-4-carboxylic acid] | 0.5 (≈ 0.815 µM) | 4 (≈ 6.52 µM) | 0.5 (≈ 0.815 µM) | 4 (≈ 6.52 µM) | 4 (≈ 6.52 µM) | 2 (≈ 3.26 µM) | 8 (≈ 13 µM) | 16 (≈ 26.1 µM) | > 10 | 0.5 (≈ 0.815 µM) |  |  |  |
| CSCC(=O)N[C@@H]1C(=O)N2C(C(=O)O)=C(Sc3ccnn3-c3ccccc3)CS[C@H]12 [Cmpd 106, (7R)-7-[(methylthioacetyl)amino]-3-(1-N-phenylpyrazol-5-ylthio)-3-cephem-4-carboxylic acid] | 0.25 (≈ 0.54 µM) | 8 (≈ 17.3 µM) | 0.125 (≈ 0.27 µM) | 32 (≈ 69.2 µM) | 4 (≈ 8.65 µM) | 4 (≈ 8.65 µM) | > 32 | > 32 | 0.72 |  |  | 0.125 (≈ 0.27 µM) |  |
| O=C(CS/C=C\Cl)N[C@@H]1C(=O)N2C(C(=O)O)=C(Sc3ccnn3-c3ccccc3)CS[C@H]12 [Cmpd 131, (7R)-7-[((Z-2-Chlorovinyl)thioacetyl)amino]-3-(1-N-phenylpyrazol-5-ylthio)-3-cephem-4-carboxylic acid] |  | 4 (≈ 7.86 µM) |  | 32 (≈ 62.9 µM) | 1 (≈ 1.96 µM) | 0.5 (≈ 0.982 µM) | > 32 | > 32 | 1.73 | 0.06 (≈ 0.118 µM) |  |  |  |
| N=C(N)NCCSCC(=O)N[C@@H]1C(=O)N2C(C(=O)O)=C(Sc3ccccc3CSC(=N)N)CS[C@H]12 [Cmpd 137, (7R)-7-[((2-guanidinoethylthio)acetyl)amino]-3-(2-isothiouroniummethylphenylthio)-3-cephem-4-carboxylate, trifluoroacetic acid salt] |  | 4 | 0.06 | 16 | 0.25 | 0.5 | 4 | > 32 | 0.75 | 0.06 |  |  |  |
| CN[C@H](CC(C)C)C(=O)N[C@H]1C(=O)N[C@@H](CC(N)=O)C(=O)N[C@H]2C(=O)N[C@H]3C(=O)N[C@H](C(=O)N[C@H](C(=O)O)c4cc(O)cc(O)c4-c4cc3ccc4O)[C@H](O)c3ccc(c(Cl)c3)Oc3cc2cc(c3O[C@@H]2O[C@H](CO)[C@@H](O)[C@H](O)[C@H]2O[C@H]2C[C@](C)(N)[C@H](O)[C@H](C)O2)Oc2ccc(cc2Cl)[C@H]1O [Vancomycin, reference compound] |  |  |  |  |  |  |  |  |  |  |  | 1 (≈ 0.69 µM) | 2.81 |
